Among the data in patent publication US7582645B2, “Pyrimidine derivatives for treatment of hyperproliferative disorders” (Bayer Pharmaceuticals Corporation, priority 2003, dated 2009) are IC50 values, retold here.

Where only a bound is given, the exact number is not on record here.

The subject of one test is HCT116 cells. The experiment in a line: HCT116 cytotoxic activity assay (Alamar Blue, 72 h). Format: cell-based. The settings on record: Homo sapiens, HCT-116, 72 h compound exposure, greater than 500 nM but less than or equal to 2 μM. As for the experimental part:
Representative compounds of this invention were tested for cytotoxicity using the above-described assay procedure with the following results: […]
In general terms: Alamar Blue is a resazurin reagent that responds to reducing activity.
Turning to `Nc1nc(Nc2ccc(Oc3ccnc(OCCN4CCOCC4)c3)cc2)cc(-c2ccccc2)n1` [Example 32, N^4-{4-[2-(2-morpholin-4-yl-ethoxy)-pyridin-4-yloxy]-phenyl}-6-phenyl-pyrimidine-2,4-diamine], the concentration for half-maximal inhibition (IC50) (commonly the point on the concentration scale where inhibition reaches its midpoint) lay in the range of 500 to 2000 nM.
On the same count and under the same terms, the same measure for `NC(=O)c1cc(Oc2ccc(Nc3cc(-c4cccc(OCc5ccccc5)c4)nc(N)n3)cc2)ccn1` [Example 222, 4-[4-({2-amino-6-[3-(benzyloxy)phenyl]pyrimidin-4-yl}amino)phenoxy]pyridine-2-carboxamide]: 500 to 2000 nM.
For the molecule `COc1ccc(C(C)C)cc1-c1cc(Nc2ccc(Oc3ccnc(C(F)(F)F)c3)cc2)nc(N)n1` [Example 201, 6-(5-isopropyl-2-methoxyphenyl)-N4*-(4-{[2-(trifluoromethyl)pyridin-4-yl]oxy}phenyl)pyrimidine-2,4-diamine], the half-inhibitory concentration (IC50) is 500 to 2000 nM.
Molecule `NC(=O)c1cc(Oc2cccc(Nc3cc(-c4ccccc4F)nc(N)n3)c2)ccn1` [Example 286, 4-(3-{[2-amino-6-(2-fluorophenyl)pyrimidin-4-yl]amino}phenoxy) pyridine-2-carboxamide] showed an IC50 of 500 to 2000 nM.

Staying with this test, now noted: Homo sapiens, HCT-116, 72 h compound exposure, greater than 2 μM.
The molecule `N#Cc1cc(Oc2ccc(Nc3cc(-c4ccc(-c5ccccc5)c(F)c4)nc(N)n3)cc2)ccn1` [Example 221, 4-(4-{[2-amino-6-(2-fluorobiphenyl-4-yl)pyrimidin-4-yl]amino}phenoxy) pyridine-2-carbonitrile] came in with a 50% inhibitory concentration (IC50) of more than 2000 nM.
As to `COC[C@@H]1CCCN1c1ccnc(Oc2ccc(Nc3cc(-c4ccccc4)nc(N)n3)cc2)c1` [Example 43], the IC50 was more than 2000 nM.
`CN(C)c1ccc(-c2cc(Nc3cccc(Oc4ccnc(C(N)=O)c4)c3)nc(N)n2)cc1` [Example 287, 4-[3-({2-amino-6-[4-(dimethylamino)phenyl]pyrimidin-4-yl}amino)phenoxy]pyridine-2-carboxamide] displayed a half-maximal inhibitory concentration (IC50) of more than 2000 nM.

The same test, now with this note: Homo sapiens, HCT-116, 72 h compound exposure, less than or equal to 500 nM.
On to `Nc1nc(Nc2ccc(Oc3ccnc(C(F)(F)F)c3)cc2)cc(-c2ccccc2OC(F)(F)F)n1` [Example 161, 6-[2-(trifluoromethoxy)phenyl]-N4*-(4-{[2-(trifluoromethyl)pyridin-4-yl]oxy}phenyl)pyrimidine-2,4-diamine], for which the IC50 is not above 500 nM.
As for `COc1cc(-c2cc(Nc3ccc(Oc4ccnc(C#N)c4)cc3)nc(N)n2)ccc1O` [Example 171, 4-(4-{[2-amino-6-(4-hydroxy-3-methoxyphenyl)pyrimidin-4-yl]amino}phenoxy)pyridine-2-carbonitrile], the IC50 was not above 500 nM.
In the case of `Nc1nc(Nc2ccc(Cc3ccnc(Cl)c3)cc2)cc(-c2ccccc2)n1` [Example 34, N4*-{4-[(2-chloropyridin-4-yl)methyl]phenyl}-6-phenylpyrimidine-2,4-diamine], the IC50 was not above 500 nM.
`Nc1nc(Nc2ccc(Oc3cc(Br)ccn3)cc2)cc(-c2ccccc2)n1` [Example 63, N4*-{4-[(4-bromopyridin-2-yl)oxy]phenyl}-6-phenylpyrimidine-2,4-diamine] displayed an IC50 not above 500 nM.
`CCc1cccc(-c2cc(Nc3cccc(Oc4ccnc(C(N)=O)c4)c3)nc(N)n2)c1` [Example 288, 4-(3-{[2-amino-6-(3-ethylphenyl)pyrimidin-4-yl]amino}phenoxy) pyridine-2-carboxamide]: the IC50 was not above 500 nM.
Turning to `N#Cc1cc(Oc2ccc(Nc3cc(-c4ccccc4F)nc(N)n3)cc2)ccn1` [Example 241, 4-(4-{[2-amino-6-(2-fluorophenyl)pyrimidin-4-yl]amino}phenoxy) pyridine-2-carbonitrile], the IC50 is not above 500 nM.
`Nc1nc(Nc2cccc(Oc3ccnc(N(CCO)CCO)c3)c2)cc(-c2ccccc2)n1` [Example 127, 2,2′-[(4-{3-[(2-amino-6-phenylpyrimidin-4-yl)amino]phenoxy}pyridin-2-yl)imino]diethanol] showed a concentration for half-maximal inhibition (IC50) not above 500 nM.
In turn, `NC(=O)c1cc(Oc2ccc(Nc3cc(-c4cccc(N)c4)nc(N)n3)cc2)ccn1` [Example 254, 4-(4-{[2-amino-6-(3-aminophenyl)pyrimidin-4-yl]amino}phenoxy) pyridine-2-carboxamide] gave an IC50 not above 500 nM.
Turning to `Cc1ccc(-c2cc(Nc3ccc(Oc4ccnc(C#N)c4)cc3)nc(N)n2)cc1N` [Example 252, 4-(4-{[2-amino-6-(3-amino-4-methylphenyl)pyrimidin-4-yl]amino}phenoxy)pyridine-2-carbonitrile], the half-inhibitory concentration (IC50) was not above 500 nM.
